# Key:
# [1] = Cell growth assay, WST-8 (compounds B1-B126); assay type: cell-based; settings: 96 h; T47D cell line, WST-8, 4 days; read-out: Cell growth inhibition in T47D cell line IC50
# How it was run: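 Read-out is WST-8 absorbance at 450 nm (2.5 h, 37° C) as a fraction of vehicle control, from three separate repeats. Compound exposure lasted 4 days, starting one day after plating 1500 cells/well.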
# ER = biological target: T1, ER (Homo sapiens, UniProt P03372); assay: In-cell western blot analysis, relative ER percentage (compounds B1-B126); assay type: cell-based; settings: ER degradation, 16 hours, read-out: ICW DC50
# T1 construct: endogenous in cells; probably T47D or MCF-7
# T1 sequence (P03372 1-595): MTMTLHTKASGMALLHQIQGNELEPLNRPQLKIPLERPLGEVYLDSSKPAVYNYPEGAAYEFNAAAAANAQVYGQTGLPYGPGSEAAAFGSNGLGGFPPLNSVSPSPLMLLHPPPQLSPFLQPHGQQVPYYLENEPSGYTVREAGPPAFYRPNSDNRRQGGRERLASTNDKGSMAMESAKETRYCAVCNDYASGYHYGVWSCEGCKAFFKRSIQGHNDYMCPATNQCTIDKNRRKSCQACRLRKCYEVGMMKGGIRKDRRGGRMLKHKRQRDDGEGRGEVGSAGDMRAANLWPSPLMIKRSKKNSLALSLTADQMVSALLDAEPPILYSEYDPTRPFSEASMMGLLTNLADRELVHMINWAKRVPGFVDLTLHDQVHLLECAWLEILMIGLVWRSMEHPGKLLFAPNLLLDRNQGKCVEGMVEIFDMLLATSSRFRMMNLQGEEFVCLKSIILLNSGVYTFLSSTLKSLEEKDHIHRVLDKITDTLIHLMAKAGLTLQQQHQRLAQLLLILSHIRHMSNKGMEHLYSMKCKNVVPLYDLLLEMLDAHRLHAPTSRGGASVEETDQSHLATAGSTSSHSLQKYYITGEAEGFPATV
# How it was run: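 Readout was a two-colour infrared in-cell western of formaldehyde-fixed cells after 16 h compound exposure at 0.5% DMSO, with 40,000 or 10,000 cells/well plated the previous night. Relative ER percentage compares treated wells against untreated/DMSO-treated wells taken as 100%.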
SMILES,DC50 (ER),IC50 [1]
"C[C@@H]1Cc2c(ccc3[nH]ncc23)[C@@H](c2ccc(N3CCC(N4CC(N5CCN6c7cc8c(cc7OC[C@@H]6C5)C(=O)N(C5CCC(=O)NC5=O)C8)C4)CC3)cn2)N1CC(F)(F)F (stereo partly drawn) [Compound B52, 3-((S)-3-(1-(1-(6-((6S,8R)-8-methyl-7-(2,2,2-trifluoroethyl)-6,7,8,9-tetrahydro-3H-pyrazolo[4,3-f]isoquinolin-6-yl)pyridin-3-yl)piperidin-4-yl)azetidin-3-yl)-8-oxo-1,2,3,4,4a,5,8,10-octahydro-9H-pyrazino[1′,2′:4,5][1,4]oxazino[2,3-f]isoindol-9-yl)piperidine-2,6-dione]",< 10 nM,< 1 nM
"C[C@@H]1Cc2c(ccc3[nH]ncc23)[C@@H](c2c(F)cc(N3CCC(CN4CCC5(CC4)COc4c5ccc5c4CN(C4CCC(=O)NC4=O)C5=O)CC3)cc2F)N1CC(F)F (stereo partly drawn) [Compound B114, 3-(1′-((1-(4-((6S,8R)-7-(2,2-difluoroethyl)-8-methyl-6,7,8,9-tetrahydro-3H-pyrazolo[4,3-f]isoquinolin-6-yl)-3,5-difluorophenyl)piperidin-4-yl)methyl)-6-oxo-6,8-dihydro-2H,7H-spiro[furo[2,3-e]isoindole-3,4′-piperidin]-7-yl)piperidine-2,6-dione]",> 100 nM,< 1 nM
"COc1cc(N2CCC3(CC2)CC(CN2CCN4c5ccc6c(c5OC[C@H]4C2)CN(C2CCC(=O)NC2=O)C6=O)CO3)ccc1[C@@H]1c2ccc3[nH]ncc3c2C[C@@H](C)N1CC(F)F (stereo partly drawn) [Compound B80, 3-((5aR)-7-((8-(4-((6S,8R)-7-(2,2-difluoroethyl)-8-methyl-6,7,8,9-tetrahydro-3H-pyrazolo[4,3-f]isoquinolin-6-yl)-3-mcthoxyphenyl)-1-oxa-8-azaspiro[4.5]decan-3-yl)methyl)-1-oxo-1,3,5,5a,6,7,8,9-octahydro-2H-pyrazino[1′,2′:4,5][1,4]oxazino[2,3-e]isoindol-2-yl)piperidine-2,6-dione]",< 10 nM,< 1 nM
"C[C@@H]1Cc2c(ccc3[nH]ncc23)[C@@H](c2ccc(N3CCC4(CC3)CC(CN3CCC5(CC3)COc3c5ccc5c3CN(C3CCC(=O)NC3=O)C5=O)CO4)cn2)N1CC(F)(F)F (stereo partly drawn) [Compound B95, 3-(1′-((8-(6-((6S,8R)-8-methyl-7-(2,2,2-trifluoroethyl)-6,7,8,9-tetrahydro-3H-pyrazolo[4,3-f]isoquinolin-6-yl)pyridin-3-yl)-1-oxa-8-azaspiro[4.5]decan-3-yl)methyl)-6-oxo-6,8-dihydro-2H,7H-spiro[furo[2,3-e]isoindole-3,4′-piperidin]-7-yl)piperidine-2,6-dione]",> 100 nM,< 1 nM
"C[C@@H]1Cc2c(ccc3[nH]ncc23)[C@@H](c2c(F)cc(NC3CN(C(=O)CN4CCN5c6ccc7c(c6OC[C@H]5C4)CN(C4CCC(=O)NC4=O)C7=O)C3)cc2F)N1CC(F)F (stereo partly drawn) [Compound B100, 3-((R)-7-(2-(3-((4-((6S,8R)-7-(2,2-difluoroethyl)-8-methyl-6,7,8,9-tetrahydro-3H-pyrazolo[4,3-f]isoquinolin-6-yl)-3,5-difluorophenyl)amino)azetidin-1-yl)-2-oxoethyl)-1-oxo-1,3,5,5a,6,7,8,9-octahydro-2H-pyrazino[1′,2′:4,5][1,4]oxazino[2,3-e]isoindol-2-yl)piperidine-2,6-dione]",10 to 100 nM,1 to 10 nM
"C[C@@H]1Cc2c(ccc3[nH]ncc23)[C@@H](c2ccc(N3CCC4(CCN(CC(=O)N5Cc6cc7c(cc6C5)C(=O)N(C5CCC(=O)NC5=O)C7)CC4)CC3)cn2)N1CC(F)(F)F (stereo partly drawn) [Compound B76, 3-(6-(2-(9-(6-((6S,8R)-8-methyl-7-(2,2,2-trifluoroethyl)-6,7,8,9-tetrahydro-3H-pyrazolo[4,3-f]isoquinolin-6-yl)pyridin-3-yl)-3,9-diazaspiro[5.5]undecan-3-yl)acetyl)-1-oxo-3,5,6,7-tetrahydropyrrolo[3,4-f]isoindol-2(1H)-yl)piperidine-2,6-dione]",< 10 nM,1 to 10 nM
"C[C@@H]1Cc2c(ccc3[nH]ncc23)[C@@H](c2ccc(N3CCC(CN4CCC5(CC4)COc4c(ccc6c4CN([C@H]4CCC(=O)NC4=O)C6=O)O5)CC3)cn2)N1CC(F)(F)F [Compound B119, (S)-3-(1-((1-(6-((6S,8R)-8-methyl-7-(2,2,2-trifluoroethyl)-6,7,8,9-tetrahydro-3H-pyrazolo[4,3-f]isoquinolin-6-yl)pyridin-3-yl)piperidin-4-yl)mcthyl)-7′-oxo-7′,9′-dihydro-2′H,8′H-spiro[piperidine-4,3′-[1,4]dioxino[2,3-e]isoindol]-8′-yl)piperidine-2,6-dione]",10 to 100 nM,< 1 nM

# Continued, in another order:
DC50 (ER),SMILES,IC50 [1]
< 10 nM,"C[C@@H]1Cc2c(ccc3[nH]ncc23)[C@@H](c2ccc(N3CC4(CCC(CN5CCN6c7cc8c(cc7OC[C@@H]6C5)C(=O)N(C5CCC(=O)NC5=O)C8)CC4)C3)cn2)N1CC(F)F (stereo partly drawn) [Compound B88, 3-((S)-3-((2-(6-((6S,8R)-7-(2,2-difluoroethyl)-8-methyl-6,7,8,9-tetrahydro-3H-pyrazolo[4,3-f]isoquinolin-6-yl)pyridin-3-yl)-2-azaspiro[3.5]nonan-7-yl)methyl)-8-oxo-1,2,3,4,4a,5,8,10-octahydro-9H-pyrazino[1′,2′:4,5][1,4]oxazino[2,3-f]isoindol-9-yl)piperidine-2,6-dione]",1 to 10 nM
< 10 nM,"COc1cc(N2CCC3(CC2)CC(CN2CCN4c5cc6c(cc5OC[C@@H]4C2)C(=O)N(C2CCC(=O)NC2=O)C6)C3)ccc1[C@@H]1c2ccc3[nH]ncc3c2C[C@@H](C)N1CC(F)F (stereo partly drawn) [Compound B54, 3-((S)-3-((7-(4-((6S,8R)-7-(2,2-difluoroethyl)-8-methyl-6,7,8,9-tetrahydro-3H-pyrazolo[4,3-f]isoquinolin-6-yl)-3-methoxyphenyl)-7-azaspiro[3.5]nonan-2-yl)methyl)-8-oxo-1,2,3,4,4a,5,8,10-octahydro-9H-pyrazino[1′,2′:4,5][1,4]oxazino[2,3-f]isoindol-9-yl)piperidine-2,6-dione]",1 to 10 nM
< 10 nM,"C[C@@H]1Cc2c(ccc3[nH]ncc23)[C@@H](c2c(F)cc(N3CCC4(CC3)CN(C(=O)CN3CCN5c6cc7c(cc6OC[C@@H]5C3)C(=O)N(C3CCC(=O)NC3=O)C7)C4)cc2F)N1CC(F)F (stereo partly drawn) [Compound B20, 3-((S)-3-(2-(7-(4-((6S,8R)-7-(2,2-difluoroethyl)-8-methyl-6,7,8,9-tetrahydro-3H-pyrazolo[4,3-f]isoquinolin-6-yl)-3,5-difluorophenyl)-2,7-diazaspiro[3.5]nonan-2-yl)-2-oxoethyl)-8-oxo-1,2,3,4,4a,5,8,10-octahydro-9H-pyrazino[1′,2′: 4,5][1,4]oxazino[2,3-f]isoindol-9-yl)piperidine-2,6-dione]",< 1 nM
< 10 nM,"C[C@@H]1Cc2c(ccc3[nH]ncc23)[C@@H](c2c(F)cc(NC3CC4(C3)CN(CC(=O)N3CCN5c6cc7c(cc6OC[C@@H]5C3)C(=O)N(C3CCC(=O)NC3=O)C7)C4)cc2F)N1CC(F)F (stereo partly drawn) [Compound B42, 3-((S)-3-(2-(6-((4-((6S,8R)-7-(2,2-difluoroethyl)-8-methyl-6,7,8,9-tetrahydro-3H-pyrazolo[4,3-f]isoquinolin-6-yl)-3,5-difluorophenyl)amino)-2-azaspiro[3.3]heptan-2-yl)acetyl)-8-oxo-1,2,3,4,4a,5,8,10-octahydro-9H-pyrazino[1′,2′:4,5][1,4]oxazino[2,3-f]isoindol-9-yl)piperidine-2,6-dione]",< 1 nM
